Assay results: publication PMC11413853, “Discovery of VU6007496: Challenges in the Development of an M1 Positive Allosteric Modulator Backup Candidate” (ACS Chemical Neuroscience, 2024)
“Also recorded” adds a separate entry of the source. Like-named read-outs stand apart in the source and are kept apart here.

How the values were obtained:
[1] = Rat plasma and brain exposure, 100 mg/kg i.p., 3 h; assay type: in vivo; conditions: ip; for Kp at 3 h: brain and plasma, 100 mg/kg i.p.; for concentration at 3 h: 100 mg/kg i.p. in 30% captisol
Source text: Due to the prevalence of metabolite A (VU6036463, 24) in both in vitro preparations and in vivo, we first synthesized and characterized 24. Utilizing intermediate 19 (Scheme 3), a Suzuki coupling with benzyl chloride 28 afforded a mixture of N-Boc protected analog 29 and N-H analog 29a in moderate isolated yield. Hydrolysis of the nitriles to the carboxylic acid, followed by a HATU-mediated coupling with tetrahydro-2H-pyran-4-amine delivered 24 in 81% yield over the two steps.[21] In our kinetic assays, 24 was an “active” metabolite, with the profile of an M1 ago-PAM. […] To ascertain if 24 could be the source of the adverse cholinergic events in rats, we dosed 11 and 24, in parallel, at a dose of 100 mg/kg i.p. in 30% captisol and prepared plasma and brain samples at a 3-h time point to determine brain exposure of the M1 ago-PAM 24. In this study, 11 achieved a total plasma concentration of 3.6 μM and a total brain concentration of 0.93 μM (Kp = 0.26).

[2] = Plasma protein binding, cyno; assay type: in vitro ADME; conditions: cynomolgus monkey, pH 7.4, read-out: fu,plasma cyno
Description: (§1) Plasma protein binding and Brain homogenate binding: Determination of fraction unbound (f u) in plasma was conducted in vitro via equilibrium dialysis using HTDialysis (HTD) membrane plates. The top half of the plate was filled with 100 uL of Dubelco’s Phosphate Buffered Saline, pH 7.4 (DPBS). Compounds were diluted into plasma from each species (5 µM final concentration), which was aliquoted in triplicate to the ‘bottom half’ of the prepared HTD plate wells. The HTD plate was sealed and incubated for 6 hours at 37 °C. Following incubation, each well (both top and bottom halves) were transferred (20 µL) to the corresponding wells of a 96-shallow-well (V-bottom) plate. […]
(§2) The unbound fraction (f u) was calculated following the equation below, and mean values for each species were calculated from 3 replicates.
(§3) A similar approach was used to determine the degree of brain homogenate binding, which employed the same methodology and procedure with the following modifications: 1) a final compound concentration of 1 μM was used, 2) naïve rat brains were homogenized in DPBS (1:3 composition of brain: DPBS, w/w) using a Mini-Bead Beater™ machine in order to obtain brain homogenate, which was then treated in the same manner as the plasma samples in the previously described plasma protein binding assay. Fraction unbound for both plasma and brain samples was determined using Equation 4. […]

[3] = test system: CYP3A4, CYP1A2, CYP2C9 and CYP2D6; assay: CYP450 profile (summary over four isoforms); assay type: in vitro ADME; conditions: human; summary over the four isoforms; read-out: CYP450 IC50s against CYP3A4, CYP1A2, CYP2C9 and CYP2D6
[4] = GSH trapping study in human liver microsomes; assay type: in vitro ADME
mice = assay: Mouse phenotypic seizure liability assay (modified Racine score); assay type: in vivo; conditions: 100 mg/kg i.p.; for seizure liability / behavioral convulsions (modified Racine score): male C57Bl/6 mice, 3 h
Description: Brain plasma concentration ratio (Kp) was calculated by dividing brain concentration by plasma concentration for each animal. Unbound brain to unbound plasma concentration ratio (Kp,uu) is calculated using the following formula: Kp,uu = (Brain ng/g x brain fu)/(plasma ng/ml x plasma fu). […]
Behavioral Manifestations of Seizure Activity
To evaluate induction of behavioral manifestation of seizure activity, C57Bl/6 mice received administration of vehicle or 100 mg/kg M1 PAM. Compounds were formulated in 30% Captisol (11) or 10% Tween 80 (2-4 and 12) (pH 7.0) at a concentration of 10 mg/mL and injected i.p. (n = 3). Animals were monitored continuously and scored for behavioral manifestations of seizure activity at 5, 10, 15, and 30 min, and 1 and 3 h. Behavioral manifestations of seizures were scored using a modified Racine scoring system.2 Briefly, a score of 0 represents no behavior alterations; score 1, immobility, mouth and facial movements, or facial clonus; score 2, head nodding, tail extension; score 3, forelimb clonus, repetitive movements; score 4, rearing and tonic clonic seizure; and score 5, continuous rearing and falling, severe generalized tonic clonic seizure.

Melatonin MT1 = assay: Eurofins radioligand binding; set-up: species or system Human; conditions: specific binding
cardiac ion channels = assay: Electrophysiology panel of cardiac ion channels (summary); assay type: cell-based; conditions: 10 μM; whole panel
Source text: In a 4-strain Ames assay, with and without S9, both 11 and 12 were negative.
Table S2. Effects of VU6007496 on Ion Channel Current (Charles River Study 200609.WVN)
Ion Channel Conc Mean % Standard Standard n Individual Data
(μM) Inhibition Deviation Error Points (% Inhibition)

[5] = IV/PO pharmacokinetics, dog; assay type: in vivo, dog (beagle or mongrel); conditions: for clearance / Vd / half-life: plasma, 1 mg/kg; for clearance: read-out: CLp; for Vd: read-out: Vss; for half-life: read-out: elimination t1/2 (converted)
Source text: (§4) We next conducted multispecies IV/PO PK in parallel as a potential discerning data set.

[6] = Plasma protein binding, dog; assay type: in vitro ADME; conditions: pH 7.4, read-out: fu,plasma dog
Description: as §1, §2, §3

[7] = IV/PO pharmacokinetics, NHP; assay type: in vivo; conditions: NHP (cyno); for clearance / Vd / half-life: cynomolgus monkey, plasma, 1 mg/kg; for clearance: read-out: CLp; for Vd: read-out: Vss; for half-life: read-out: elimination t1/2 (converted)
Source text: as §4

[8] = brain, read-out: total brain concentration
[9] = plasma, read-out: total plasma concentration

| Compound | Kp at 3 h [1] | concentration at 3 h [1, 8] [nM] | concentration at 3 h [1, 9] [nM] | fraction unbound at 6 h, 5 µM [2] | IC50 [3] [µM] | GSH trapping, reactive intermediates [4] | seizure liability / behavioral convulsions (modified Racine score) (mice) | % Inhibition at 10 µM (Melatonin MT1) [%] | inhibition of cardiac ion channels (cardiac ion channels) [%] | fraction unbound at 6 h, 5 µM [6] | other results |
| --- | --- | --- | --- | --- | --- | --- | --- | --- | --- | --- | --- |
| Cn1ccc2nc(C(=O)NC3CCOCC3)cc(Cc3ccc(-c4cc[nH]n4)cc3)c21 [compound 24] | 0.07 | 80 | 1200 |  |  |  |  |  |  |  |  |
| Cn1ccc(-c2ccc(Cc3cc(C(=O)NC4CCOCC4)nc4ccsc34)cc2)n1 [compound 12] |  |  |  | 0.009 | > 16 | negative | did not induce seizure liability; also recorded: did not cause any observed adverse effects | 70 | < 17 | 0.018 | F (%) po ([5]; dose iv/po 1/3 mg/kg): 9%; clearance ([5]; dose iv/po 1/3 mg/kg): 1.3 mL/min/kg; Vd ([5]; dose iv/po 1/3 mg/kg): 4 L/kg; half-life ([5]; dose iv/po 1/3 mg/kg): 36.6 h; F (%) po ([7]; dose iv/po 1/3 mg/kg): 79%; clearance ([7]; dose iv/po 1/3 mg/kg): 2.3 mL/min/kg; Vd ([7]; dose iv/po 1/3 mg/kg): 0.7 L/kg; half-life ([7]; dose iv/po 1/3 mg/kg): 4.5 h |
| Cn1ccc(-c2ccc(Cc3cc(C(=O)NC4CCOCC4)nc4ccn(C)c34)cc2)n1 [compound 11] | 0.26 | 930 | 3600 | 0.026 | > 16 | negative | did not induce seizure liability; also recorded: did not cause any observed adverse effects | 7 | < 17 | 0.06 | total brain exposure (mice; mouse): 1.04 µM; F (%) po ([5]; dose iv/po 1/5 mg/kg): 35%; clearance ([5]; dose iv/po 1/5 mg/kg): 2.4 mL/min/kg; Vd ([5]; dose iv/po 1/5 mg/kg): 2.2 L/kg; half-life ([5]; dose iv/po 1/5 mg/kg): 12.8 h; F (%) po ([7]; dose iv/po 1/5 mg/kg): 59%; clearance ([7]; dose iv/po 1/5 mg/kg): 5.9 mL/min/kg; Vd ([7]; dose iv/po 1/5 mg/kg): 0.39 L/kg; half-life ([7]; dose iv/po 1/5 mg/kg): 1 h |
